What all share (type): functional, cell-based
One assay has as its system SMMC-7721. Nature of the assay: Cytotoxicity against human SMMC7721 cells after 48 hrs by SRB assay. For orientation: The SRB assay estimates cell density from bound dye.
The subject of a further assay is HL-60. In words: Cytotoxicity against human HL60 cells after 48 hrs by SRB assay.
Another assay relates to HeLa. In words: Cytotoxicity against human HeLa cells after 48 hrs by SRB assay.
Where [1] appears, read: Homo sapiens, SMMC-7721, 48 h, read-out: IC50.
The mark [2] stands for this setting: Homo sapiens, HL-60, 48 h, read-out: IC50.

Regarding `CO[C@@]12[C@H](COC(N)=O)C3=C(C(=O)C(C)=C(N)C3=O)N1C[C@@H]1N[C@@H]12` [MITOMYCIN], the half-maximal inhibitory concentration (IC50) – broadly, the concentration needed to halve the response being measured – stood at 5.4 µM in the assay on SMMC-7721 (setting [1]); 1.5 µM with HL-60 (setting [2]); 3.3 µM in the assay on HeLa (Homo sapiens, HeLa, 48 h, read-out: IC50).

Regarding `CC(=O)O[C@H](C)[C@H]1CC[C@@]2(O)[C@]1(C)CC[C@@H]1[C@@]3(C)CC[C@@H]4C[C@@]43[C@H](OC(C)=O)C[C@]12O` [VLADIMULIECIN A], the IC50 in the assay on SMMC-7721 (setting [1]) is 98.6 µM; in the assay on HL-60 (setting [2]), 99 µM; with HeLa (hela) it was 167 µM.

`CC(=O)O[C@H](C)[C@H]1CC[C@@]2(O)[C@]1(C)CC[C@@H]1[C@@]3(C)CC[C@@H]4C[C@@]43[C@H](O)C[C@]12O` [VLADIMULIECIN B]: the results for the half-maximal inhibitory concentration (IC50) with SMMC-7721 (smmc-7721), with HL-60 (setting [2]) and in the assay with HeLa (hela) were 104 µM, 88 µM and 121 µM, respectively.

Turning to `C[C@@H](O)[C@H]1CC[C@@]2(O)[C@]1(C)CC[C@@H]1[C@@]3(C)CC[C@@H]4C[C@@]43[C@H](O)C[C@]12O`, the values for the concentration for half-maximal inhibition (IC50) in the assay with SMMC-7721 (smmc-7721), with HL-60 (hl-60) and with HeLa (hela) were 101 µM, 138 µM and 165 µM, respectively.
